Measured values from patent publication US20250367302A1, “SMALL MOLECULE DRUG-OLIGONUCLEOTIDE CONJUGATE AND USE THEREOF” (SHANGHAI JIAO TONG UNIVERSITY, priority 2022, published 2025).

Key:
NFKBIZ mRNA [1] = experiment: NFKBIZ mRNA expression by RT-qPCR in IL-36-stimulated HaCaT cells; format: cell-based, human; settings: IL-36-stimulated (100 ng/ml, 2 h) HaCaT cells, nanomicelles with 10 μM ASONFKBIZ-h, 6 h + 48 h
Description: HaCaT cells from human keratinocyte cell line were inoculated in a 6-well plate at a density of 1×10^5 cells/well and cultured until adherence. The cells were then stimulated with 100 ng/ml interleukin-36 (IL-36) for 2 h. After washing with 1×PBS buffer, 1 mL of Opti-MEM medium containing ASONFKBIZ-h+Lipo2000 complex and CsA3-ASONFKBIZ-h nanomicelles (all containing 10 μM ASONFKBIZ-h) were added, respectively. After incubation with HaCaT cells for 6 h, the cells were transferred into fresh DMEM medium, while cells without any treatment or stimulated with IL-36 alone were used as a control, all cells were incubated at 37° C. for 48 h. The cells were collected and RNA was extracted for RT-qPCR to analyze the expression level of the NFKBIZ mRNA in HaCaT cells, and experimental results were shown in FIG. 51.
HaCaT cells from human keratinocyte cell line were inoculated in a 6-well plate at a density of 1×10^5 cells/well and cultured until adherence. The cells were then stimulated with 100 ng/ml interleukin-36 (IL-36) for 2 h. After washing with 1×PBS buffer, 1 mL of Opti-MEM medium containing ASONFKBIZ-h+Lipo2000 complex and 10TA-ASONFKBIZ-h nanomicelles (all containing 10 μM ASONFKBIZ-h) were added, respectively. […]

NFKBIZ mRNA [2] = experiment: NFKBIZ mRNA expression by RT-qPCR in LPS-stimulated HCECs; format: cell-based, human; settings: LPS-stimulated (100 ng/mL) HCECs, 10 μM ASO or siRNA, without transfection reagent, 6 h + 48 h
Description: HCECs were inoculated in a 6-well plate at a density of 1×10^5 cells/well and cultured until adherence. The cells were then stimulated with 100 ng/mL lipopolysaccharide (LPS) overnight. After removing the supernatant, 1 mL of Opti-MEM medium containing ASONFKBIZ-h, ASONFKBIZ-h+Lipofectamine2000 (Lipo2000), and CsA-ASONFKBIZ-h (all containing 10 µM ASO) were added, respectively. Cells without any treatment were used as a blank reference (Mock). After incubation at 37° C. for 6 h, the cells were transferred into DMEM medium and incubated for another 48 h. The cells were collected and RNA was extracted for RT-qPCR to analyze the expression level of the NFKBIZ mRNA in HCECs, and experimental results were shown in FIG. 9. The expression level of NFKBIZ mRNA in HCECs after LPS stimulation was about 1.3 times that of normal cells. […] After adding CsA-ASONFKBIZ-h for co-incubation, the expression of NFKBIZ mRNA was reduced to about 0.8 times that of normal cells.
(§1) HCECs were inoculated in a 6-well plate at a density of 1×10^5 cells/well and cultured until adherence. The cells were then stimulated with 100 ng/mL LPS overnight. After removing the supernatant, 1 mL of Opti-MEM medium containing ASONFKBIZ-h+Lipo2000 complex and 2CsA-ASONFKBIZ-h nanomicelles (all containing 10 µM ASO) were added, respectively. After incubation at 37° C. for 6 h, the cells were transferred into DMEM medium and incubated for another 48 h. The cells were collected and RNA was extracted for RT-qPCR to analyze the expression level of the NFKBIZ mRNA in HCECs, and experimental results were shown in FIG. 12.
as §1, with “ng/ml” for “ng/mL”, “3CsA-ASONFKBIZ-h” for “2CsA-ASONFKBIZ-h”, “15.” for “12.”
HCECs were inoculated in a 6-well plate at a density of 1×10^5 cells/well and cultured until adherence. The cells were then stimulated with 100 ng/mL LPS overnight. 1 mL of Opti-MEM medium containing ASONFKBIZ-h+Lipo2000 complex and CsA3-ASONFKBIZ-h nanomicelles (all containing 10 µM ASO) were added, respectively. After incubation at […]. 37° C. for 6 h, the cells were transferred into DMEM medium and incubated for another 48 h. After collected and RNA was extracted for RT-qPCR to evaluate the expression level of NFKBIZ mRNA in HCECs, and the experimental results were shown in FIG. 23.
HCECs were inoculated in a 6-well plate at a density of 1×10^5 cells/well and cultured overnight until adherence. The cells were then stimulated with 100 ng/ml LPS for 12 h. After removing the supernatant, 1 mL of Opti-MEM medium containing siRNANFKBIZ-h+Lipo2000 complex and nCsA-siRNANFKBIZ-h (n=1, 2, 3) conjugates and nanomicelles (all containing 10 μM siRNA) were added, respectively. After incubation at 37° C. for 6 h, the cells were transferred into DMEM medium and incubated for another 48 h. The cells were collected and RNA was extracted for RT-qPCR to evaluate the expression of NFKBIZ mRNA in HCECs, and experimental results were shown in FIG. 27. […]

CsA3-ASONFKBIZ-h: CsA trimer on tripropargyl linker at 3′ end of ASO targeting human NFKBIZ (SEQ ID NO: 7) (ATCAGACAACGAATCGGGC; 3'-NHS ASO with tripropargyl linker carrying three cyclosporin A, chemistry not given here, further chemistry not given here)
NFKBIZ mRNA expression relative to normal cells (NFKBIZ mRNA [1]): about 0.8 times
expression of NFKBIZ mRNA relative to normal cells (NFKBIZ mRNA [2]): about 0.5 times that of normal cells
